# Results reported in patent publication US12428406B2 (PMV Pharmaceuticals, Inc., priority 2019, dated 2025).
# Target: T1, p53 Y220C (Homo sapiens, UniProt P04637, Y220C)
# T1 construct: The recombinant protein was a truncation mutant containing only amino acids 94-312 of p53; made in house; host or cells: E. coli
# Assay: In vitro DNA binding activity assay (HTRF / TR-FRET): stabilization of p53 Y220C and increase of its DNA binding activity
# Assay type: biochemical
# Details: recombinant His-tagged p53 Y220C DNA binding domain (aa 94-312), biotin-labeled consensus DNA, incubated at 27° C. or 29° C. for 60 min
# Method in brief: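 Homogeneous time-resolved fluorescence with E. coli-derived p53 Y220C and biotinylated consensus DNA. Room-temperature incubations of 15 and 20 min precede reading. SC150 denotes the compound concentration required for 50% increased DNA binding.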
# T1 sequence (P04637 94-312, change not shown): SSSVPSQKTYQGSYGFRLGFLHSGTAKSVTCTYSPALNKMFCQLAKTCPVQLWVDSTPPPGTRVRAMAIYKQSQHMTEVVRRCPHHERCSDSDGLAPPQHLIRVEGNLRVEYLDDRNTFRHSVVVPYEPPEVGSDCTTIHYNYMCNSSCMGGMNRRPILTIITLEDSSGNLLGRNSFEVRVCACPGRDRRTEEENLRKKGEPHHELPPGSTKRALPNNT
row,SMILES,SC150 (concentration of the compound required to increase the DNA binding activity by 50%)
1,"COCC(O)CN1CCC(Nc2cccc3c2cc(C#CCNc2ccc(S(C)(=O)=O)cc2OC)n3CC(F)F)CC1 (centres unmarked) [Compound 709A, 1-(4-{[1-(2,2-difluoroethyl)-2-{3-[(4-methanesulfonyl-2-methoxyphenyl)amino]prop-1-yn-1-yl}-1H-indol-4-yl]amino}piperidin-1-yl)-3-methoxypropan-2-ol]",+ (+ = 0 μM ≤ SC150 < 0.05 μM)
2,"COc1cc(S(C)(=O)=O)ccc1NCC#Cc1cc2c(N[C@H]3CC[C@@H](N4CC5CC(C4)O5)CC3)cccc2n1CC(F)(F)F [Compound 399A, 2-{3-[(4-methanesulfonyl-2-methoxyphenyl)amino]prop-1-yn-1-yl}-N-[(1S,4S)-4-{6-oxa-3-azabicyclo[3.1.1]heptan-3-yl}cyclohexyl]-1-(2,2,2-trifluoroethyl)-1H-indol-4-amine]",+ (+ = 0 μM ≤ SC150 < 0.05 μM)
3,"CNC(=O)c1ccc(NCC#Cc2cc3c(N[C@H]4CC[C@@H](N(C)C)CC4)cccc3n2CC(F)(F)F)c(OC)c1 [Compound 75A, 3-methoxy-N-methyl-4-{[3-(4-{[(1S,4S)-4-(dimethylamino)cyclohexyl]amino}-1-(2,2,2-trifluoroethyl)-1H-indol-2-yl)prop-2-yn-1-yl]amino}benzamide]",++ (++ = 0.05 μM ≤ SC150 < 0.1 μM)
4,"COc1cc(C(N)=O)ccc1NCC#Cc1cc2c(N[C@H]3CCO[C@@H](C)C3)cccc2n1CC(F)(F)F [Compound 1021A, 3-methoxy-4-{[3-(4-{[(2S,4S)-2-methyloxan-4-yl]amino}-1-(2,2,2-trifluoroethyl)-1H-indol-2-yl)prop-2-yn-1-yl]amino}benzamide]",+ (+ = 0 μM ≤ SC150 < 0.05 μM)
5,"CCN1CC[C@@H](Nc2cccc3c2cc(C#CCNc2ccc(C(=O)NC)cc2OC)n3CC(F)(F)F)[C@@H](F)C1 [Compound 1074A, 4-{[3-(4-{[(3S,4R)-1-ethyl-3-fluoropiperidin-4-yl]amino}-1-(2,2,2-trifluoroethyl)-1H-indol-2-yl)prop-2-yn-1-yl]amino}-3-methoxy-N-methylbenzamide]",+ (+ = 0 μM ≤ SC150 < 0.05 μM)
6,"CNC(=O)c1ccc(NCC#Cc2cc3c(N[C@H]4CC[C@H](N5CCC6(CCOCC6)CC5)CC4)cccc3n2CC(F)(F)F)c(OC)c1 [Compound 416A, 3-methoxy-N-methyl-4-{[3-(4-{[(1R,4R)-4-{3-oxa-9-azaspiro[5.5]undecan-9-yl}cyclohexyl]amino}-1-(2,2,2-trifluoroethyl)-1H-indol-2-yl)prop-2-yn-1-yl]amino}benzamide]",+ (+ = 0 μM ≤ SC150 < 0.05 μM)
7,"CCN1CC[C@H](Nc2cccc3c2cc(C#CCNc2ccc(S(C)(=O)=O)cc2OC)n3CC(F)(F)F)[C@H](F)C1 (racemic) [Compound 820A, rac-N-[(3R,4S)-1-ethyl-3-fluoropiperidin-4-yl]-2-{3-[(4-methanesulfonyl-2-methoxyphenyl)amino]prop-1-yn-1-yl}-1-(2,2,2-trifluoroethyl)-1H-indol-4-amine]",+ (+ = 0 μM ≤ SC150 < 0.05 μM)
8,"CCNC(=O)c1ccc(NCC#Cc2cc3c(N[C@H]4CC[C@@H](N(C)C)CC4)cccc3n2CC(F)(F)F)c(OC)c1 [Compound 102A, N-ethyl-3-methoxy-4-{[3-(4-{[(1S,4S)-4-(dimethylamino)cyclo-hexyl]amino}-1-(2,2,2-trifluoroethyl)-1H-indol-2-yl)prop-2-yn-1-yl]amino}benzamide]",+ (+ = 0 μM ≤ SC150 < 0.05 μM)
9,"COC(=O)[C@H](CCC(N)=O)NC(=O)c1ccc(NCC#Cc2cc3c(N[C@@H]4CCN(C)C[C@@H]4F)cccc3n2CC(F)(F)F)c(OC)c1 [Compound 956A, methyl (2S)-4-carbamoyl-2-[(4-{[3-(4-{[(3S,4R)-3-fluoro-1-methylpiperidin-4-yl]amino}-1-(2,2,2-trifluoroethyl)-1H-indol-2-yl)prop-2-yn-1-yl]amino}-3-methoxyphenyl)formamido]butanoate]",+ (+ = 0 μM ≤ SC150 < 0.05 μM)
10,CCOC(=O)c1ccc(NCC#Cc2cc3c(N[C@@H]4CCN(C(C)C)C[C@@H]4F)cccc3n2CC(F)(F)F)c(OC)c1 [Compound 821A],+ (+ = 0 μM ≤ SC150 < 0.05 μM)
11,"COc1cc(S(C)(=O)=O)ccc1NCC#Cc1cc2c(N[C@H]3CC[C@H](N4CCS(=O)(=O)CC4)CC3)cccc2n1CC(F)(F)F [Compound 362A, 4-[(1R,4R)-4-[(2-{3-[(4-methanesulfonyl-2-methoxyphenyl)amino]prop-1-yn-1-yl}-1-(2,2,2-trifluoroethyl)-1H-indol-4-yl)amino]cyclohexyl]-1λ^6-thiomorpholine-1,1-dione]",+ (+ = 0 μM ≤ SC150 < 0.05 μM)
12,"CCOc1cc(S(C)(=O)=O)ccc1NCC#Cc1cc2c(N[C@@H]3CCNC[C@@H]3F)cccc2n1CC(F)(F)F [Compound 941A, 2-{3-[(2-ethoxy-4-methanesulfonylphenyl)amino]prop-1-yn-1-yl}-N-[(3S,4R)-3-fluoropiperidin-4-yl]-1-(2,2,2-trifluoroethyl)-1H-indol-4-amine]",+ (+ = 0 μM ≤ SC150 < 0.05 μM)
13,"COc1cc(S(N)(=O)=O)ccc1NCC#Cc1cc2c(NC3CCN(CC4COC(=O)O4)CC3)cccc2n1CC(F)(F)F (centres unmarked) [Compound 546A, 3-methoxy-4-({3-[4-({1-[(2-oxo-1,3-dioxolan-4-yl)methyl]piperidin-4-yl}amino)-1-(2,2,2-trifluoroethyl)-1H-indol-2-yl]prop-2-yn-1-yl}amino)benzene-1-sulfonamide]",+ (+ = 0 μM ≤ SC150 < 0.05 μM)
14,"COc1cc(C(=O)NCC(CO)OC)ccc1NCC#Cc1cc2c(N[C@@H]3CCN(C)C[C@@H]3F)cccc2n1CC(F)(F)F (single isomer, unassigned) [Compound 966A]",+ (+ = 0 μM ≤ SC150 < 0.05 μM)
15,"COc1cc(C(=O)O)ccc1NCC#Cc1cc2c(N[C@H]3CCN(C(C)C)C[C@H]3F)cccc2n1CC(F)(F)F (racemic) [Compound 796A, 4-((3-(4-(((3R,4S)-3-fluoro-1-isopropylpiperidin-4-yl)amino)-1-(2,2,2-trifluoroethyl)-1H-indol-2-yl)prop-2-yn-1-yl)amino)-3-methoxybenzoic acid]",+ (+ = 0 μM ≤ SC150 < 0.05 μM)
16,"CN1CCC(Nc2cccc3c2cc(C#CCNc2cccc(S(C)(=O)=O)c2)n3CC(F)(F)F)CC1 [Compound 507A, 2-{3-[(3-methanesulfonylphenyl)amino]prop-1-yn-1-yl}-N-(1-methylpiperidin-4-yl)-1-(2,2,2-trifluoroethyl)-1H-indol-4-amine]",++ (++ = 0.05 μM ≤ SC150 < 0.1 μM)
17,"COc1cc(S(=O)(=O)N(CCO)CCO)ccc1NCC#Cc1cc2c(NC3CCN(C)CC3)cccc2n1CC(F)(F)F [Compound 483A, N,N-bis(2-hydroxyethyl)-3-methoxy-4-[(3-{4-[(1-methylpiperidin-4-yl)amino]-1-(2,2,2-trifluoroethyl)-1H-indol-2-yl}prop-2-yn-1-yl)amino]benzene-1-sulfonamide]",+ (+ = 0 μM ≤ SC150 < 0.05 μM)
